ChEMBL document CHEMBL4715762, “Discovery of anabaenopeptin 679 from freshwater algal bloom material: Insights into the structure-activity relationship of anabaenopeptin protease inhibitors” (Bioorg Med Chem Lett, 2016)
Calls of active or inactive are those of the source. No cut-off for these calls is given here. Starred links: 1 amine or outer side, 2 acyl side, 3 side chain; linkers in the order of their positions; H or OH if unused. Positions of bridges follow the written chain, without caps; N, C: chain ends. Non-standard residues stand in square brackets, D forms with d. Residues, ends and D or L forms follow the SMILES beside them. NMehTyr = CN[C@@H](CCc1ccc(O)cc1)C(=O)O; X1 = NC(=O)N[C@H](CCCCN[*:1])C(=O)[*:2]; hTyr = N[C@@H](CCc1ccc(O)cc1)C(=O)O; NMeA = CN[C@@H](C)C(=O)O; CO = O=C([*:1])[*:2]

Tests used:
Carboxypeptidase A1 [1] = molecular target: T1, Carboxypeptidase A1 (Homo sapiens, UniProt P15085); test: Inhibition of carboxypeptidase A (unknown origin) assessed as reduction in degradation of N-(4-methoxyphenylazoformyl)-Phe-OH using N-(4-methoxyphenylazoformyl)-Phe-OH as substrate
T1 sequence (P15085 whole entry): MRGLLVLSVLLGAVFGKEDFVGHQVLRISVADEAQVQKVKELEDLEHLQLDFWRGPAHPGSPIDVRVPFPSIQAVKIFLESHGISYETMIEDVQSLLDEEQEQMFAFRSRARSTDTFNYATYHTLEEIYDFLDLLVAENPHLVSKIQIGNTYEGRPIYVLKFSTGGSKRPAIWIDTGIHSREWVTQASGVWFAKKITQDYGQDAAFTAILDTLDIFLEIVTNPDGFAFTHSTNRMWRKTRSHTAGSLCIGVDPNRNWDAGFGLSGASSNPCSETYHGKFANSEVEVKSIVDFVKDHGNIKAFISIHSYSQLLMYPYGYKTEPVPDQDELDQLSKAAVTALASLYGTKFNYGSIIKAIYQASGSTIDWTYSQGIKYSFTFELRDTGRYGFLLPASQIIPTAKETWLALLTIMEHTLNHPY

[2] = molecular target: T2, Carboxypeptidase A1 (Homo sapiens) (UniProt P15085); test: Inhibition of carboxypeptidase A (unknown origin) assessed as reduction in degradation of N-(4-methoxyphenylazoformyl)-Phe-OH at > 10 uM using N-(4-methoxyphenylazoformyl)-Phe-OH as substrate; conditions: dose microM >10
T2 sequence (whole entry): T1 sequence (P15085 whole entry)

Carboxypeptidase A1 [3] = molecular target: T1, Carboxypeptidase A1; test: Inhibition of carboxypeptidase A (unknown origin)
Carboxypeptidase A1 [4] = molecular target: T3, Carboxypeptidase A1 (Bos taurus, UniProt P00730); test: Inhibition of carboxypeptidase A in bovine pancreas assessed as reduction in hydrolysis of hippuryl-L-phenylalanine using hippuryl-L-phenylalanine as substrate measured after 2 hrs; format: tissue-based
T3 sequence (P00730 whole entry): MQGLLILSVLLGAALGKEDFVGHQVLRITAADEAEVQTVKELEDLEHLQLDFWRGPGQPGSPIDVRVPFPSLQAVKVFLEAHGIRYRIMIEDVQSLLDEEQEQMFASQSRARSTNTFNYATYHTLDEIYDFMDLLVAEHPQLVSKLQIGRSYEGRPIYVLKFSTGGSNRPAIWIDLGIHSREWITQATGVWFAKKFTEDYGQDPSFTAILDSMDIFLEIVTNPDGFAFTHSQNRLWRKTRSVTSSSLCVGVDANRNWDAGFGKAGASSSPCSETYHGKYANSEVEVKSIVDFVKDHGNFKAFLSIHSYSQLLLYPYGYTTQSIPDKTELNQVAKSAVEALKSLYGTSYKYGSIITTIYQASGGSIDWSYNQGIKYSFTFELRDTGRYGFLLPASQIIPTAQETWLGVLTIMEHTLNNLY

Carboxypeptidase A1 [5] = molecular target: T1, Carboxypeptidase A1; test: Inhibition of carboxypeptidase A (unknown origin) assessed as reduction in hydrolysis of hippuryl-L-phenylalanine using hippuryl-L-phenylalanine as substrate

Row | Compound | IC50 (Carboxypeptidase A1 [1]) [µM] | other results
1 | CC(C)[C@@H]1NC(=O)[C@H](NC(=O)N[C@@H](CCCNC(=N)N)C(=O)O)CCCCNC(=O)[C@H](Cc2ccccc2)NC(=O)[C@H](C)N(C)C(=O)[C@H](CCc2ccc(O)cc2)NC1=O [ANABAENOPEPTIN B] ({Arg-CO}-[dK]V[hTyr][NMeA]F; lactam 1-C) | > 24 | –
2 | CC[C@H](C)[C@@H]1NC(=O)[C@H](NC(=O)N[C@@H](CCCNC(=N)N)C(=O)O)CCCCNC(=O)[C@H](Cc2ccccc2)NC(=O)[C@H](C)N(C)C(=O)[C@H](CCc2ccc(O)cc2)NC1=O [ANABAENOPEPTIN F] ({Arg-CO}-[dK]I[hTyr][NMeA]F; lactam 1-C) | > 24 | –
3 | CC[C@H](C)[C@@H]1NC(=O)[C@H](CCc2ccc(O)cc2)N(C)C(=O)[C@H](CCc2ccc(O)cc2)NC(=O)[C@H](C(C)C)NC(=O)[C@H](NC(=O)N[C@@H](CCCNC(=N)N)C(=O)O)CCCCNC1=O [ANABAENOPEPTIN 908] ({Arg-CO}-[dK]V[hTyr][NMehTyr]I; lactam 1-C) | > 11 | inhibition [2]: Active; IC50 (Carboxypeptidase A1 [3]): > 22 µM
4 | CC(C)[C@@H]1NC(=O)[C@H](NC(N)=O)CCCCNC(=O)[C@H](Cc2ccccc2)NC(=O)[C@H](C)N(C)C(=O)[C@H](CCc2ccc(O)cc2)NC1=O (cyclo(F[X1]V[hTyr][NMeA])) | 6.74 | –
5 | CC[C@H](C)[C@H](NC(=O)N[C@@H]1CCCCNC(=O)[C@H]([C@@H](C)CC)NC(=O)[C@H](CCc2ccc(O)cc2)N(C)C(=O)[C@H](CCc2ccc(O)cc2)NC(=O)[C@H](C(C)C)NC1=O)C(=O)O [ANABAENOPEPTIN T] ({Ile-CO}-[dK]V[hTyr][NMehTyr]I; lactam 1-C) | – | IC50 (Carboxypeptidase A1 [4]): 2300 nM
6 | CC[C@H](C)[C@@H]1NC(=O)[C@H](NC(=O)N[C@@H](Cc2ccc(O)cc2)C(=O)O)CCCCNC(=O)[C@H]([C@@H](C)CC)NC(=O)[C@H](CCc2ccc(O)cc2)N(C)C(=O)[C@H](CCc2ccc(O)cc2)NC1=O [ANABAENOPEPTIN G] ({Tyr-CO}-[dK]I[hTyr][NMehTyr]I; lactam 1-C) | – | IC50 (Carboxypeptidase A1 [5]): 2 nM
7 | CC[C@H](C)[C@@H]1NC(=O)[C@H](NC(=O)N[C@@H](CCCNC(=N)N)C(=O)O)CCCCNC(=O)[C@H]([C@@H](C)CC)NC(=O)[C@H](CCc2ccc(O)cc2)N(C)C(=O)[C@H](CCc2ccc(O)cc2)NC1=O [ANABAENOPEPTIN H] ({Arg-CO}-[dK]I[hTyr][NMehTyr]I; lactam 1-C) | 10.2 | –
